Results as given in ChEMBL document CHEMBL1201862, “PubChem BioAssay data set” (2004).
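In this assay, cells in 96-well plates receive the compound at five concentrations for 48 hours. Endpoints are linearly interpolated between the surrounding concentrations. GI50 marks 50% less growth.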 Calls of active or inactive are those of the source. No stated cut-off is given here; in the data, active = GI50 up to about 1.1 µM and inactive = higher.

How the values were obtained:
Test in all cases: NCI tumour cell line growth inhibition, 48 h
[1] = system: HL-60
[2] = system: U-251
[3] = system: SW-620
[4] = system: CCRF-CEM
[5] = system: SR
[6] = system: MDA-MB-231
[7] = system: RXF 393
[8] = system: SF-268
[9] = system: MDA-N
[10] = system: SK-MEL-2
[11] = system: ACHN
[12] = system: DU-145
[13] = system: A549
[14] = system: SK-MEL-5
[15] = system: OVCAR-4
[16] = system: UACC-62
[17] = system: UACC-257
[18] = system: K562
[19] = system: NCI-H23
[20] = system: LOX IMVI
[21] = system: SK-OV-3
[22] = system: HOP-62
[23] = system: SNB-19
[24] = system: HCT-15
[25] = system: SNB-75
[26] = system: HCT-116
[27] = system: UO-31
[28] = system: SN12C
[29] = system: HCC 2998
[30] = system: Malme-3M
[31] = system: NCI/ADR-RES
[32] = system: M14
[33] = system: NCI-H522
[34] = system: A498
[35] = system: 786-0
[36] = system: NCI-H460
[37] = system: IGROV-1
[38] = system: PC-3
[39] = system: CAKI-1
[40] = system: MDA-MB-435
[41] = system: HT-29
[42] = system: KM12
[43] = system: OVCAR-8
[44] = system: SF-539
[45] = system: COLO 205
[46] = system: EKVX
[47] = system: HOP-92
[48] = system: MCF7
[49] = system: RPMI-8226
[50] = system: NCI-H226
[51] = system: Hs-578T
[52] = system: SF-295
[53] = system: TK-10
[54] = system: SK-MEL-28
[55] = system: OVCAR-3
[56] = system: T47D
[57] = system: MOLT-4
[58] = system: OVCAR-5

Measured: GI50

N#CC(C#N)=C/C=C/c1c(Cl)cccc1Cl
active: [1] 0.698 µM
1.91 µM: [24]
inactive: [2] 1.81 µM | [3] 1.92 µM | [4] 1.34 µM | [5] 1.7 µM | [6] 1.85 µM | [7] 1.58 µM | [8] 1.92 µM | [9] 1.62 µM | [10] 1.7 µM | [11] 1.6 µM | [12] 1.71 µM | [13] 2.75 µM | [14] 1.85 µM | [15] 1.72 µM | [16] 1.5 µM | [17] 1.58 µM | [18] 2.55 µM | [19] 1.47 µM | [20] 1.73 µM | [21] 2.56 µM | [22] 2.74 µM | [23] 3.78 µM | [25] 2.84 µM | [26] 1.34 µM | [27] 1.84 µM | [28] 1.8 µM | [29] 1.84 µM | [30] 1.73 µM | [31] 1.96 µM | [32] 1.69 µM | [33] 1.65 µM | [34] 2.99 µM | [35] 1.71 µM | [36] 1.87 µM | [37] 2.16 µM | [38] 1.81 µM | [39] 1.93 µM | [40] 2.14 µM | [41] 1.7 µM | [42] 1.58 µM | [43] 1.53 µM | [44] 1.28 µM | [45] 1.73 µM | [46] 3.33 µM | [47] 2.42 µM | [48] 1.94 µM | [49] 1.78 µM | [50] 2.45 µM | [51] 1.97 µM | [52] 2.07 µM | [53] 2.7 µM | [54] 1.64 µM | [55] 2.13 µM | [56] 2.24 µM | [57] 1.88 µM

Clc1ncc(Cl)c(Cl)n1
active: [1] 0.474 µM | [18] 0.832 µM | [49] 0.455 µM
inactive: [2] 4.22 µM | [3] 1.38 µM | [4] 2.47 µM | [58] 19.8 µM | [5] 1.61 µM | [6] 3.03 µM | [7] 2.05 µM | [8] 9.12 µM | [9] 3.37 µM | [10] 2.12 µM | [11] 1.92 µM | [12] 11.8 µM | [13] 12.1 µM | [14] 5.05 µM | [15] 2.08 µM | [16] 1.91 µM | [17] 5.22 µM | [19] 15.5 µM | [20] 1.17 µM | [21] 4.7 µM | [22] 16.5 µM | [23] 3.3 µM | [25] 2.84 µM | [26] 2.82 µM | [27] 3.17 µM | [28] 1.73 µM | [29] 4.21 µM | [30] 1.88 µM | [31] 3.95 µM | [32] 3.24 µM | [33] 1.48 µM | [34] 19.1 µM | [35] 1.99 µM | [36] 5.27 µM | [37] 9.66 µM | [38] 2.45 µM | [39] 1.86 µM | [40] 2.65 µM | [41] 1.36 µM | [42] 9.14 µM | [43] 3.86 µM | [44] 8.97 µM | [45] 1.72 µM | [46] 13.3 µM | [47] 1.81 µM | [48] 1.59 µM | [50] 4.85 µM | [51] 2.72 µM | [52] 13.2 µM | [53] 9.55 µM | [54] 3.42 µM | [55] 6.5 µM | [56] 2.36 µM | [57] 1.5 µM
2.24 µM: [24]
